The values that follow are results of earlier work, collected in US6823530B2, “Antimicrobial treatment for swimwear” (Kimberly-Clark Worldwide, Inc., priority 2000, dated 2004).

Data set [1] relates to gram negative and positive bacteria.

`CC1(C)C(=O)N(CO)C(=O)N1CO` [DMDM Hydantoin, DMDM (dimethyl dimethyl) Hydantoin]: the “effectiveness against gram negative and positive bacteria” value in data set [1] is recorded as “highly effective”. Also, where the note is “held above room temperature (50° Celsius) for a long period of time”, the thermal stability entry is recorded as “does not break down”. Also, the pH stability entry (wide pH range) is on record as “stable over a wide pH range”.
